# Measurements as given in US20220054493A1, “INHIBITORS OF NGAL PROTEIN” (INSERM (INSTITUT NATIONAL DE LA SANTÉ ET DE LA RECHERCHE …, priority 2019, published 2022).
# Key:
# [1] = target: T1, NGAL (Homo sapiens, UniProt P80188); experiment: NGAL-induced IL6 secretion in human cardiac fibroblasts (ELISA); type: cell-based; settings: for Activity: NGAL-induced IL6 secretion (NGAL 10 ng/ml), Control = 1.00 ± 0.03
# T1 construct: purchased R&D Systems
# Protocol: (§1) Cell Culture Human cardiac fibroblasts (primary culture) were obtained from Promocell and maintained in medium (Fibroblast Media 3). Cells were cultured according to the manufacturer's instructions and used between passages 5 and 7. Cells were stimulated with aldosterone (10^-8 M, Sigma) or recombinant hNGAL (500 ng/mL, R&D Systems) for 24 h for protein analysis. Mouse kidney fibroblasts (MKF), were isolated from Wild Type (WT) mice. Briefly, mice 7 to 8 weeks were sacrificed by cervical dislocation and kidneys were cleaned and rinsed in cold DPBS (Dulbecco's Phosphate-Buffered Saline). The renal cortex was minced and incubated in Dulbecco's modified eagle medium/Nutrient mixture F-12 (DMEM/F12, Sigma) containing 1 mg/mL collagenase A (Roche) during 25 minutes at 37° C. The digestion was inactivated by adding culture medium (DMEM/F12+10% FBS) then the cell suspension was passed through a 100-μm cell strainer. After centrifugation, the pellet (containing MKF) was diluted with culture medium then plated in 75 cm^2 culture flask. After 24 hours MKF were washed with DPBS before replacement of fresh culture medium. Thereafter, culture medium was changed every 48 hours. Once 70-80% confluent, MKF were trypsinized and plated in 12 or 6-well plates. For experimental use, MKF were starved with culture medium containing only 3% FBS. MKF were treated with mNGAL (500 ng/mL, R&D Systems) for 24 h for gene expression analysis.
# (§2) NGAL, IL6 and collagen type I concentrations were measured in cardiac tissue and cell supernatants, respectively, by ELISA according to the manufacturer's instructions (R&D Systems).
# The inhibitory activity of the compounds was evaluated on the NGAL-induced IL6 secretion (NGAL 10 ng/ml) in human cardiac fibroblasts.
# Inhibitory activities of 23 second generation compounds derived from GPZ614741 and GPZ058225 were evaluated on the NGAL-induced IL6 secretion (NGAL 10 ng/ml) in human cardiac fibroblasts.
# [2] = target: T1, NGAL; experiment: NGAL-induced proliferation of human cardiac fibroblast cells (MTT); type: cell-based; settings: NGAL 10 ng/ml; FIG. 3
# Protocol: as §1
# Cell proliferation was assessed using the MTT Proliferation Assay (Sigma).
# Results are shown on FIG. 3.
# [3] = test system: human microsomes; experiment: Stability in human microsomes; type: in vitro ADME
# Protocol: (§3) Two specific toxicity assays have been performed to assess hepatoxicity and cardiotoxicity. Hepatotoxicity was evaluated in isolated hepatocytes from swiss mice and determined by the MTT colorimetric assay. Cardiotoxicity was evaluated using the commercially available Predictor hERG fluorescence polarization kit (Thermo Fisher Scientific). Several ADME assays have been carried out on the compounds generated throughout the project. The following experiments were undertaken: Stability in human microsomes, binding to human plasma protein, and CYP3A4 inhibition assay (Vivid CYP3A4 assay, Thermo Fisher Scientific). Physico-chemical properties were also assessed such as aqueous solubility and chemical stability.
# [4] = Aqueous solubility; type: physicochemical
# Protocol: as §3
# [5] = test system: human plasma protein; experiment: Binding to human plasma protein; type: in vitro ADME
# Protocol: as §3
# [6] = Binding to human plasma protein; type: in vitro ADME; settings: human, human plasma protein; read-out: hPPB (converted)
# Protocol: as §3
# [7] = test system: aldosterone-induced profibrotic marker synthesis; experiment: Aldosterone-induced profibrotic marker synthesis in human cardiac fibroblasts; type: cell-based; settings: FIGS. 1 and 2 panel D
# Protocol: (§4) Cell Culture Human cardiac fibroblasts (primary culture) were obtained from Promocell and maintained in medium (Fibroblast Media 3). Cells were cultured according to the manufacturer's instructions and used between passages 5 and 7. Cells were stimulated with aldosterone (10^-8 M, Sigma) or recombinant hNGAL (500 ng/mL, R&D Systems) for 24 h for protein analysis. Mouse kidney fibroblasts (MKF), were isolated from Wild Type (WT) mice. Briefly, mice 7 to 8 weeks were sacrificed by cervical dislocation and kidneys were cleaned and rinsed in cold DPBS (Dulbecco's Phosphate-Buffered Saline). […]
# (§5) Total protein aliquots of 20 μg were prepared from cardiac homogenates and electrophoresed on SDS polyacrylamide gels and transferred to Hybond-c Extra nitrocellulose membranes (Amersham Biosciences). […] After densitometric analyses, optical density values were expressed as arbitrary units. Results are expressed as an n-fold increase over the values of the control group in densitometric arbitrary units.
# as §2
# (§6) The inhibitory activity of the compounds was evaluated on the NGAL-induced IL6 secretion (NGAL 10 ng/ml) in human cardiac fibroblasts. […]
# [8] = Chemical stability; type: physicochemical
# Protocol: as §3
# [9] = target: T2, CYP3A4 (Homo sapiens, UniProt P08684); experiment: CYP3A4 inhibition assay (Vivid CYP3A4 assay); type: in vitro ADME
# T2 construct: purchased Thermo Fisher Scientific
# T2 sequence (P08684 whole entry): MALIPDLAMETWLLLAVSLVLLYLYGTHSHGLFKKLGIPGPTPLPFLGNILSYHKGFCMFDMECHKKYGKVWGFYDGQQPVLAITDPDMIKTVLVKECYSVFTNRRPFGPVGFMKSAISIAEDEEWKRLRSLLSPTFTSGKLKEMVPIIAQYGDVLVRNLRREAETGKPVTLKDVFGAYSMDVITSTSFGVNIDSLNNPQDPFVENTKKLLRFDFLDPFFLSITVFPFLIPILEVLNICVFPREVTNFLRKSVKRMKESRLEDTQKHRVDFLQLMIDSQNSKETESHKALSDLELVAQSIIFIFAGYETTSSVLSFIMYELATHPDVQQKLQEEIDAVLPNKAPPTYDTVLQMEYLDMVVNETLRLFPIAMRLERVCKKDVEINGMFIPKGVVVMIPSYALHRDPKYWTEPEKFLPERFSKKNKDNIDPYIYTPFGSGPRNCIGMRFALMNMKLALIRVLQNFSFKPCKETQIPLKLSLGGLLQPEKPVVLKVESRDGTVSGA
# Protocol: as §3
# [10] = test system: isolated hepatocytes from swiss mice; experiment: Hepatotoxicity, MTT colorimetric assay; type: cell-based
# Protocol: as §3
# [11] = target: T1, NGAL; experiment: NGAL-induced Col 1 secretion in human cardiac fibroblasts (ELISA); type: cell-based; settings: FIGS. 1 and 2 panel B
# Protocol: as §1, with “After 24 hours MKF were washed with DPBS before replacement of fresh culture medium. Thereafter, culture medium was changed every 48 hours. Once 70-80% confluent, MKF were trypsinized and plated in 12 or 6-well plates. For experimental use, MKF were starved with culture medium containing only 3% FBS. MKF were treated with mNGAL (500 ng/mL, R&D Systems) for 24 h for gene expression analysis.” left out
# as §2, §6
# [12] = Bi-CaCo2 permeability assay; type: in vitro ADME, human; settings: human, Caco-2; efflux ratio
# Protocol: (§7) The Caco-2 Permeability assay uses an established method for predicting the in vivo absorption of drugs across the gut wall. The transport rate across the CaCo2 cell line is measured. This cell line has a human colon carcinoma origin and resembles to the intestinal epithelia (a polarised monolayer with microvilli and intercellular tight junctions).
# (§8) Bidirectional transport (apical to basolateral (A-B) and basolateral to apical (B-A)) across the cell monolayer were determined allowing to calculate the efflux ratio (an indicator as to whether a compound undergoes active efflux).
# [13] = test system: CaCo2 cell line; experiment: Bi-CaCo2 permeability assay; type: in vitro ADME, human
# Protocol: as §7, §8
# [14] = target: T3, hERG channel (Homo sapiens, UniProt Q12809); experiment: Cardiotoxicity, Predictor hERG fluorescence polarization kit; type: binding
# T3 construct: purchased Thermo Fisher Scientific
# T3 sequence (Q12809 whole entry): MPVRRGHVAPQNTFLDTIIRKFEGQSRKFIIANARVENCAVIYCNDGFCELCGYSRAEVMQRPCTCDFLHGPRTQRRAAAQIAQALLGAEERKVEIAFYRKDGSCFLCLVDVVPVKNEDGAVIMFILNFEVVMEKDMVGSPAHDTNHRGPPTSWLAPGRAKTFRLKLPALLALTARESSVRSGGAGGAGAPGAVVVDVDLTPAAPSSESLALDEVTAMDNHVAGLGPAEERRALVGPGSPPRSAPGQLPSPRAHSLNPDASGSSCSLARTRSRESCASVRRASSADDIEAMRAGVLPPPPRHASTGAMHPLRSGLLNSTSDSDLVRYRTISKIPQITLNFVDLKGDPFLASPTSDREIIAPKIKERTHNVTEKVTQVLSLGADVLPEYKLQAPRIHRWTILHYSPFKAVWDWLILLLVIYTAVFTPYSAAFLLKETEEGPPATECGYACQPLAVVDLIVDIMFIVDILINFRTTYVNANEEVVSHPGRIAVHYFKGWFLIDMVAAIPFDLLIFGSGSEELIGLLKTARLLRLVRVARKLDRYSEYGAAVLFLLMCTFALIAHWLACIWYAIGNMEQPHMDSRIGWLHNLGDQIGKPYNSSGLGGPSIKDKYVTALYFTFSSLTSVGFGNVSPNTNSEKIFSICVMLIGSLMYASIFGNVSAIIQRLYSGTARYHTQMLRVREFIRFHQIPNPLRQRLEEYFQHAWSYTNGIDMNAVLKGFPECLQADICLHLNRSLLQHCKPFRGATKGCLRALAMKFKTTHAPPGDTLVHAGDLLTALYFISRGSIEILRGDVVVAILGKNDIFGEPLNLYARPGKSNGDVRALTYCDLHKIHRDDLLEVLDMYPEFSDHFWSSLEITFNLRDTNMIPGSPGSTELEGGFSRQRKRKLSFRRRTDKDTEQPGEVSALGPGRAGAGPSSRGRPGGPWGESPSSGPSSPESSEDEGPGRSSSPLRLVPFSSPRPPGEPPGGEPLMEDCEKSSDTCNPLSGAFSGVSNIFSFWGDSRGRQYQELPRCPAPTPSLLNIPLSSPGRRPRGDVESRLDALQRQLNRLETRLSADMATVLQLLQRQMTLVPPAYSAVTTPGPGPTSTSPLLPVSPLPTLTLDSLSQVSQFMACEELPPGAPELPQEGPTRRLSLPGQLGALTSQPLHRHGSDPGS
# Protocol: as §3
# [15] = target: T1, NGAL; experiment: NGAL-induced profibrotic marker synthesis in human cardiac fibroblasts (western blot); type: cell-based; settings: FIGS. 1 and 2 panel C
# Protocol: as §4, with “Saline). The renal cortex was minced and incubated in Dulbecco's modified eagle medium/Nutrient mixture F-12 (DMEM/F12, Sigma) containing 1 mg/mL collagenase A (Roche) during 25 minutes at 37° C.” for “Saline).”
# as §5, §6
# T1 sequence (P80188 21-198): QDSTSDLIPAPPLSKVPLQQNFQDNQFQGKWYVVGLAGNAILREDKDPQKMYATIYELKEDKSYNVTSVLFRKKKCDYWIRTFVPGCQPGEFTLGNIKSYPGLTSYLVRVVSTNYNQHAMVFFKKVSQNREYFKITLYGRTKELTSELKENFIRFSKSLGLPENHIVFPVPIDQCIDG
compound,measurement,setting,value
CC(=O)c1cccc(S(=O)(=O)NCc2ccccc2-c2ccsc2)c1 [GPZ863205],Activity,[1],0.93 ± 0.03
CC(=O)c1cccc(S(=O)(=O)NCc2ccccc2-c2ccc(CN(C)C)cc2)c1 [GPZ642292],Activity,[1],0.64 ± 0.02
CCN1CCN(Cc2ccccc2CNS(=O)(=O)c2cccc(C(C)=O)c2)CC1 [GPZ913629],Activity,[1],0.93 ± 0.02
"CC(=O)c1ccc(S(=O)(=O)NC(=O)NC2CCCCC2)cc1 [GPZ706277, Acetohexamide]",NGAL-induced proliferation of human cardiac fibroblast cells,[2],Inhibitory effects
O=C(Nc1nc2cc(F)c(F)cc2s1)c1cn2cccnc2n1 [GPZ278618],Activity,[1],0.86 ± 0.02
CCS(=O)(=O)c1ccc2oc(SCc3cn4c(C)cc(C)nc4n3)nc2c1 [GPZ058225],NGAL-induced IL6 secretion,"[1]; NGAL 10 ng/ml, FIGS. 1 and 2 panel A",inhibited
same,"microsomes degradation, left after 2 h",[3]; after 2 h,very stable
same,Micro Stability,[3]; human microsomes,100%
same,Aquous solubility,[4],63.46%
same,solubility in aqueous buffers (solubility test),[4],63%
same,PPB (binding to plasma proteins),[5],within acceptance range
same,fraction unbound,[6],0.109
same,"aldosterone-induced profibrotic marker (Col1, CT-1, or IL6) synthesis",[7],inhibited
same,Chemical Stability,[8],92.2%
same,stability to acidic pH / digestive content,[8],very stable
same,inhibited the enzyme activity (CYP3A4) in a competition assay,[9],32%
same,Activity,"[9]; human, recombinant CYP3A4 (Vivid CYP3A4 assay kit), 100 = no inhibition, read-out: CyP 3A4 Inhibition % (100 = no inhibition)",68.1 ± 1.52%
same,hepatotoxicity (toxicity for hepatocytes),[10]; MTT up to 0.1 mM,> 0.1 mM
same,Hepatotoxicity,[10]; cell wrapped over two lines: No tox up / 100 uM,No tox up
same,Col 1 secretion (NGAL-induced),[11],inhibited
same,efflux ratio,[12],2.11
same,permeability through the intestinal epithelia (in words),[13]; compared with reference compound propranolol,quite high
same,cardiotoxicity (hERG predictor assay),[14],did not block hERG channel
same,Cardiotoxicity % (100 = no toxicity),[14]; 100 = no toxicity,101.73 ± 4.1%
same,"NGAL-induced profibrotic marker (col1, col III, fibronectin, Gal3, OPN) synthesis",[15],inhibited
CC(=O)c1ccc(S(=O)(=O)Nc2ccccc2-n2cccn2)cc1 [GPZ478519],Activity,[1],0.69 ± 0.02
"CCN(CC)CCn1c(-c2ccccc2)noc1=N [GPZ646083, Imolamine]",NGAL-induced proliferation of human cardiac fibroblast cells,[2],Inhibitory effects
"CC(C)NC[C@H](O)COc1cccc2ccccc12 (racemic) [propanolol, reference compound]",Ratio,[13]; efflux ratio,1.56
CC(=O)c1cccc(S(=O)(=O)NCc2ccccc2Cn2cccn2)c1 [GPZ505884],Activity,[1],0.83 ± 0.02
Clc1c(SCc2nc3ccccc3s2)nc2ncccn12 [GPZ564849],Activity,[1],0.85 ± 0.05
"Nc1ccc(S(=O)(=O)Nc2ccnn2-c2ccccc2)cc1 [GPZ624624, Sulfaphenazole]",NGAL-induced proliferation of human cardiac fibroblast cells,[2],Inhibitory effects
Cc1cc(C)n2cc(CSc3nc4ccccc4[nH]3)nc2n1 [GPZ743042],Activity,[1],0.94 ± 0.03
O=S(=O)(NCc1ccccc1-n1cccn1)c1ccccc1 [GPZ595600],Activity,[1],0.92 ± 0.04
N#Cc1cccc(S(=O)(=O)NCc2cccc(-n3cccn3)c2)c1 [GPZ778195],Activity,[1],0.88 ± 0.04
